Test results reported in US4613601A, “(1-benzodioxin-6-ylmethyl)-4-substituted piperazines having antipsychotic activity” (Adir, S.A.R.L., priority 1982, dated 1986).

Assays:
[1] = test system: d-amphetamine-induced dopaminergic hyperactivity; experiment: inhibition of d-amphetamine-induced motor phenomena in mice (activograph); assay type: in vivo
Description: the administration of d-amphetamine, at a dose of 1 to 3 mg/kg I.P. in mice, releases the supervention of motor phenomena registered using an activograph.

[2] = test system: pre-synaptic dopaminergic receptors; experiment: hypokinesia in the normal animal, mice or rats; assay type: in vivo
[3] = test system: conditioned avoidance response; experiment: conditioned avoidance response inhibition in the rat (shuttle box avoidance); assay type: in vivo, male WISTAR rats
Description: The method used is based on the works of COURVOISIER et al., Arch. Int. Pharmacodyn. 92, 305-361, (1953), and of JANSSEN et al., Arzneim. Forsch. 15, 104-117, (1965).
The experiments are carried out on groups of 10 to 20 male WISTAR rats weighing between 300 g and 400 g. Each animal is submitted to two day-sessions per week, one after treatment carried out on the substance studied at a given dose, 30 minutes before the session, the other following the administration of a solute of NaCl (0.154M)--I.P. route in both cases. The compound of Example 1 has been administered in solution in sterile bi-distilled water, at doses of 6.25, 12.5, 25, 50 and 75 mg/kg. I.P.
Piribedil chosen as reference product has been administered at the same doses and by the same route. This method is used to show the anti-psychotic activity of a substance. It is known that anti-psychotic agents inhibit the conditioned shunning response, without modifying the escape response following an electric shock (Unconditioned response).

[4] = test system: dopaminergic post-synaptic receptors of the striatum; experiment: stereotyped movements in rats (Quinton and Halliwell scale); assay type: in vivo; settings: for total stereotypy score in 3 hours: 6 observations; for total stereotypy score in 3 hours / total stereotypy score: groups of 8 rats; for stimulating activity on the dopaminergic post-synaptic receptors of the striatum: rats, from stereotypy scores
Description: The research for stereotyped movements, proof of the existence of a direct post-synaptic dopaminergic stimulating activity, has been carried out in rats using the scale described by R. M. QUINTON and H. HALLIWELL, Nature, 200, 1963, 178-179. The experiment lasts 3 hours, the animals are observed every 30 minutes. The groups are made up of 8 rats each, and the results are the total scores of the accumulated individual scores of the stereotypies observed during the experiment (6 observations).

[5] = test system: dopaminergic inhibitory auto-receptors; experiment: motor depressant effects (hypokinesia) in mice; assay type: in vivo; settings: all doses studied from 20 to 160 mg/kg I.P.
Text: The motor depressant effects of the compound of Example 1 have been studied in mice.

[6] = test system: hypersensitive post-synaptic dopaminergic receptors; experiment: rotations in rats with unilateral lesions of the nigro-neostriatal tract (Ungerstedt); assay type: in vivo, rat
Description: The central dopaminergic activity for the compounds of the present invention was determined, especially by measuring the rotations of the rat according to the method of Ungerstedt U., European Journal of Pharmacology, 5, (1968) 107-110. For the compounds of the present invention, administered at a dose of 25 mg/kg subcutaneously, up to 380 rotations were obtained in 45 minutes.
Experiments have also been carried out on rats with unilateral lesions of the nigro-neostriatal tract.
These lesions are produced by local micro-injection of 6-hydroxy dopamine into the black substance of the rat, according to U. Ungerstedt; Europ. J. Pharmacol. 5, 1968, 107-110 and Advances in Neurology, vol. 3, Raven Press., New York (1973).
This treatment leads to a degeneration of the dopaminergic neurons coming from the nigra-substantia, going towards the neostriatum.
Furthermore, following this denervation, the post-synaptic receptors situated above the pithed tract, i.e., above the synapse which leads to the pithed neuron, become hypersensitive to the pharmacological dopaminergic agents administered. This direct activation of hypersensitive dopaminergic receptors then produces the supervention of a motor rotation behaviour in treated rats.
When the left nigro-striatal tract is destroyed, the rotations occur towards the right, on the opposite side to the lesion. The experimental groups each contain from 5 to 6 animals.

[7] = test system: dopaminergic inhibitory auto-receptors; experiment: electro-encephalogram / sleep in rats; assay type: in vivo

SMILES: C1=COc2cc(CN3CCN(c4ncccn4)CC3)ccc2O1 [Example 1, 1-(benzodioxin-6-ylmethyl)-4-(pyrimidin-2-yl)piperazine]
- antagonism of the effects of d-amphetamine ([1]; 20 mg/kg compound against 1 mg/kg I.P. d-amphetamine): antagonise
- antagonism of the effects of d-amphetamine ([1]; 40 mg/kg compound against 3 mg/kg I.P. d-amphetamine): antagonise
- inhibition of the motor phenomena due to d-amphetamine ([1]; joint administration with d-amphetamine 1 to 3 mg/kg I.P.): inhibition of the motor phenomena due to the amphetamine
- hypokinesia in the normal animal [2]: only provokes an hypokinesia
- Crossings, % over 20 ([3]; 6.25 mg/kg I.P.): -3%
- Escape response, % in relation to control animals ([3]; 6.25 mg/kg I.P.): -14%
- Escape response, % over 20 ([3]; 6.25 mg/kg I.P.): 1.5%
- Escape response, Number over 20 ([3]; 6.25 mg/kg I.P.): 0.30
- Shunning response, % in relation to control animals ([3]; 6.25 mg/kg I.P.): +0.25%
- Shunning response, % over 20 ([3]; 6.25 mg/kg I.P.): 98.5%
- Shunning response, Number over 20 ([3]; 6.25 mg/kg I.P.): 19.7
- Crossings, Number over 20 ([3]; 6.25 mg/kg I.P., * = P < 0.05): 20.6
- Crossings, % over 20 ([3]; 12.50 mg/kg I.P.): -15%
- Escape response, % in relation to control animals ([3]; 12.50 mg/kg I.P.): +71%
- Escape response, % over 20 ([3]; 12.50 mg/kg I.P.): 3%
- Escape response, Number over 20 ([3]; 12.50 mg/kg I.P.): 0.6
- Shunning response, % in relation to control animals ([3]; 12.50 mg/kg I.P.): -1%
- Shunning response, % over 20 ([3]; 12.50 mg/kg I.P.): 97%
- Shunning response, Number over 20 ([3]; 12.50 mg/kg I.P.): 19.4
- Crossings, Number over 20 ([3]; 12.50 mg/kg I.P., * = P < 0.05): 18.0
- Crossings, % over 20 ([3]; 25 mg/kg I.P.): -9%
- Escape response, % in relation to control animals ([3]; 25 mg/kg I.P.): +71%
- Escape response, % over 20 ([3]; 25 mg/kg I.P.): 3%
- Escape response, Number over 20 ([3]; 25 mg/kg I.P.): 0.6
- Shunning response, % in relation to control animals ([3]; 25 mg/kg I.P.): -1%
- Shunning response, % over 20 ([3]; 25 mg/kg I.P.): 97%
- Shunning response, Number over 20 ([3]; 25 mg/kg I.P.): 19.4
- Crossings, Number over 20 ([3]; 25 mg/kg I.P., * = P < 0.05): 19.2
- Crossings, % change in relation to control animals ([3]; 50 mg/kg I.P.): +8%
- Escape response, % in relation to control animals ([3]; 50 mg/kg I.P.): +814%
- Escape response, % over 20 ([3]; 50 mg/kg I.P.): 16%
- Shunning response, % in relation to control animals ([3]; 50 mg/kg I.P.): -15%
- Shunning response, % over 20 ([3]; 50 mg/kg I.P.): 84%
- diminution of the number of shunning responses ([3]; 50 mg/kg I.P.): 15%
- increase of the escape responses ([3]; 50 mg/kg I.P.): 800%
- Crossings, Number over 20 ([3]; 50 mg/kg I.P., * = P < 0.05): 22.9
- Escape response, Number over 20 ([3]; 50 mg/kg I.P., * = P < 0.05): 3.2
- Shunning response, Number over 20 ([3]; 50 mg/kg I.P., * = P < 0.05): 16.8
- Crossings, % change in relation to control animals ([3]; 75 mg/kg I.P.): +63%
- Escape response, % in relation to control animals ([3]; 75 mg/kg I.P.): +533%
- Escape response, % over 20 ([3]; 75 mg/kg I.P.): 9.5%
- Shunning response, % in relation to control animals ([3]; 75 mg/kg I.P.): -8%
- Shunning response, % over 20 ([3]; 75 mg/kg I.P.): 90.5%
- diminution of the number of shunning responses ([3]; 75 mg/kg I.P.): 8%
- increase of the escape responses ([3]; 75 mg/kg I.P.): 500%
- increase of the number of spontaneous crossings ([3]; 75 mg/kg I.P.): 63%
- mobility depressor, sedative, cataleptigenic effect ([3]; 75 mg/kg I.P.): neither a mobility depressor effect, nor sedative effect, nor cataleptigenic effect
- Crossings, Number over 20 ([3]; 75 mg/kg I.P., * = P < 0.05): 25.4
- Escape response, Number over 20 ([3]; 75 mg/kg I.P., * = P < 0.05): 1.9
- Shunning response, Number over 20 ([3]; 75 mg/kg I.P., * = P < 0.05): 18.1
- conditioned and unconditioned responses ([3]; I.P.): reduces the conditioned responses without diminishing the unconditioned escape responses
- stereotyped movements ([4]; 80 mg/kg I.P. or S.C.): very few stereotyped movements
- total stereotypy score in 3 hours ([4]; 80 mg/kg I.P.): 52
- total stereotypy score in 3 hours ([4]; 80 mg/kg S.C.): 49
- stereotypy in normal rats ([4]; normal rats): practically no sterotypy
- stimulating activity on the dopaminergic post-synaptic receptors of the striatum [4]: no important stimulating activity
- hypokinesia in mice [5]: provokes in mice a hypokinesia at all the doses studied
- average number of rotations in 45 minutes ([6]; 12.5 mg/kg S.C.): 182 rotations
- average number of rotations in 45 minutes ([6]; 25 mg/kg S.C.): 380 rotations
- average number of rotations in 45 minutes ([6]; 50 mg/kg P.O.): 543 rotations
- rotations in the unilaterally pithed rat ([6]; right side, opposite side to the lesion): numerous rotations
- central effects observed in the electro-encephalogram [7]: central depressant effects
- total sleep (slow sleep and paradoxal sleep), words ([7]; 30 mg/kg I.P.): increase in total sleep
- increase in total sleep ([7]; 30 mg/kg I.P., second hour following administration): 100%

SMILES: c1cnc(N2CCN(Cc3ccc4c(c3)OCO4)CC2)nc1 [Piribedil, reference compound]
- Crossings, % change in relation to control animals ([3]; 6.25 mg/kg I.P.): +50%
- Escape response, % in relation to control animals ([3]; 6.25 mg/kg I.P.): +50%
- Escape response, % over 20 ([3]; 6.25 mg/kg I.P.): 3%
- Escape response, Number over 20 ([3]; 6.25 mg/kg I.P.): 0.6
- Shunning response, % in relation to control animals ([3]; 6.25 mg/kg I.P.): -1%
- Shunning response, % over 20 ([3]; 6.25 mg/kg I.P.): 97%
- Shunning response, Number over 20 ([3]; 6.25 mg/kg I.P.): 19.4
- Crossings, Number over 20 ([3]; 6.25 mg/kg I.P., * = P < 0.05): 29.5
- Crossings, % change in relation to control animals ([3]; 12.50 mg/kg I.P.): +47%
- Escape response, % in relation to control animals ([3]; 12.50 mg/kg I.P.): 0%
- Escape response, % over 20 ([3]; 12.50 mg/kg I.P.): 2%
- Escape response, Number over 20 ([3]; 12.50 mg/kg I.P.): 0.4
- Shunning response, % in relation to control animals ([3]; 12.50 mg/kg I.P.): 0%
- Shunning response, % over 20 ([3]; 12.50 mg/kg I.P.): 98%
- Shunning response, Number over 20 ([3]; 12.50 mg/kg I.P.): 19.1
- Crossings, Number over 20 ([3]; 12.50 mg/kg I.P., * = P < 0.05): 28.9
- Crossings, % change in relation to control animals ([3]; 25 mg/kg I.P.): +148%
- Escape response, % in relation to control animals ([3]; 25 mg/kg I.P.): +149%
- Escape response, % over 20 ([3]; 25 mg/kg I.P.): 5%
- Escape response, Number over 20 ([3]; 25 mg/kg I.P.): 1
- Shunning response, % in relation to control animals ([3]; 25 mg/kg I.P.): -3%
- Shunning response, % over 20 ([3]; 25 mg/kg I.P.): 95%
- Shunning response, Number over 20 ([3]; 25 mg/kg I.P.): 19
- Crossings, Number over 20 ([3]; 25 mg/kg I.P., * = P < 0.05): 48.9
- Crossings, % change in relation to control animals ([3]; 50 mg/kg I.P.): +118%
- Escape response, % in relation to control animals ([3]; 50 mg/kg I.P.): +50%
- Escape response, % over 20 ([3]; 50 mg/kg I.P.): 3%
- Shunning response, % in relation to control animals ([3]; 50 mg/kg I.P.): -1%
- Shunning response, % over 20 ([3]; 50 mg/kg I.P.): 97%
- Crossings, Number over 20 ([3]; 50 mg/kg I.P., * = P < 0.05): 42.9
- Escape response, Number over 20 ([3]; 50 mg/kg I.P., * = P < 0.05): 0.6
- Shunning response, Number over 20 ([3]; 50 mg/kg I.P., * = P < 0.05): 19.4
- Crossings, % change in relation to control animals ([3]; 75 mg/kg I.P.): +115%
- Escape response, % in relation to control animals ([3]; 75 mg/kg I.P.): +633%
- Escape response, % over 20 ([3]; 75 mg/kg I.P.): 11%
- Shunning response, % in relation to control animals ([3]; 75 mg/kg I.P.): -10%
- Shunning response, % over 20 ([3]; 75 mg/kg I.P.): 89%
- Crossings, Number over 20 ([3]; 75 mg/kg I.P., * = P < 0.05): 33.5
- Escape response, Number over 20 ([3]; 75 mg/kg I.P., * = P < 0.05): 2.2
- Shunning response, Number over 20 ([3]; 75 mg/kg I.P., * = P < 0.05): 17.8
- effect on the shunning responses ([3]; 6.25 to 75 mg/kg I.P.): no agonistic effect on the shunning responses
- total stereotypy score ([4]; 20 mg/kg I.P.): 145
- total stereotypy score ([4]; 40 mg/kg I.P.): 246
- stimulating activity on the dopaminergic post-synaptic receptors of the striatum [4]: stimulates these receptors
- average number of rotations in 45 minutes ([6]; 50 mg/kg P.O.): 256 rotations
- reduction of total sleep ([7]; E.E.G., same dose (30 mg/kg I.P.)): 50%
